Data set [1] deals with S. pneumoniae A9585. Nature of the data set: Antibiotic spectrum in nutrient broth (MIC). It counts as cell-based. The following applies: Streptococcus pneumoniae, 10^-3 dilution of overnight broth culture, 45% AAB + serum + 50% broth, BL-S1057/BL-S1058 adjusted for 80%/59% content of BL-S643. The text has this: (§1) Antibiotic Spectrum of BL-S643 Derivatives in Nutrient Broth
(§2) *45% AAB + serum + 50% broth listed above.
(§3) **Dilution of overnight broth
(§4) ^(1) Adjusted for 80% content of BL-S643.
(§5) ^(2) Adjusted for 59% content of BL-S643.
(§6) In other words, the numerical values are lowered, i.e. improved. This

Data set [2] has as its system Str. pyogenes A9604. In words: Antibiotic spectrum in nutrient broth (MIC). The format is cell-based. The following applies: Streptococcus pyogenes, 10^-3 dilution of overnight broth culture, 45% AAB + serum + 50% broth, BL-S1057/BL-S1058 adjusted for 80%/59% content of BL-S643.
Description: as §1, §2, §3, §4, §5, §6

Data set [3] concerns E. coli A9675. Nature of the data set: Antibiotic spectrum in nutrient broth (MIC). It counts as cell-based. The following applies: Escherichia coli, 10^-4 dilution, BL-S1057/BL-S1058 adjusted for 80%/59% content of BL-S643.
Description: as §1, §3, §4, §5, §6

In data set [4] the test system is E. coli Juhl A15119. Nature of the data set: Antibiotic spectrum in nutrient broth (MIC). The format is cell-based. The following applies: Escherichia coli, JUHLA15119, 10^-4 dilution, BL-S1057/BL-S1058 adjusted for 80%/59% content of BL-S643.
Description: as §1, §3, §4, §5, §6

For data set [5], the system named is Ent. cloacae A9656. Nature of the data set: Antibiotic spectrum in nutrient broth (MIC). The following applies: Enterobacter cloacae, 10^-4 dilution, BL-S1057/BL-S1058 adjusted for 80%/59% content of BL-S643. The format is cell-based.
Description: as §1, §3, §4, §5, §6

The subject of data set [6] is Ent. cloacae A9657. In words: Antibiotic spectrum in nutrient broth (MIC). The format is cell-based. The following applies: Enterobacter cloacae, 10^-4 dilution, BL-S1057/BL-S1058 adjusted for 80%/59% content of BL-S643.
Description: as §1, §3, §4, §5, §6

The subject of data set [7] is Ent. cloacae A9659. In words: Antibiotic spectrum in nutrient broth (MIC). The format is cell-based. The following applies: Enterobacter cloacae, 10^-4 dilution, BL-S1057/BL-S1058 adjusted for 80%/59% content of BL-S643.
Description: as §1, §3, §4, §5, §6

The test system of data set [8] is K. pneumoniae A15130. Nature of the data set: Antibiotic spectrum in nutrient broth (MIC). It counts as cell-based. The following applies: Klebsiella pneumoniae, 10^-4 dilution, BL-S1057/BL-S1058 adjusted for 80%/59% content of BL-S643.
Description: as §1, §3, §4, §5, §6

Data set [9] relates to K. pneumoniae A9977. Nature of the data set: Antibiotic spectrum in nutrient broth (MIC). It counts as cell-based. The following applies: Klebsiella pneumoniae, 10^-4 dilution, BL-S1057/BL-S1058 adjusted for 80%/59% content of BL-S643.
Description: as §1, §3, §4, §5, §6

The test system of data set [10] is Pr. mirabilis A9900. Nature of the data set: Antibiotic spectrum in nutrient broth (MIC). The format is cell-based. The following applies: Proteus mirabilis, 10^-4 dilution, BL-S1057/BL-S1058 adjusted for 80%/59% content of BL-S643.
Description: as §1, §3, §4, §5, §6

In data set [11] the test system is Pr. morganii A15153. Nature of the data set: Antibiotic spectrum in nutrient broth (MIC). It counts as cell-based. The following applies: Morganella morganii, 10^-4 dilution, BL-S1057/BL-S1058 adjusted for 80%/59% content of BL-S643.
Description: as §1, §3, §4, §5, §6

Data set [12] deals with Ps. aeruginosa A9843A. In words: Antibiotic spectrum in nutrient broth (MIC). The format is cell-based. The following applies: Pseudomonas aeruginosa.
Description: as §1, §3, §4, §5, §6

Data set [13] relates to S. aureus BX1633 A9606. Nature of the data set: Antibiotic spectrum in nutrient broth (MIC). It counts as cell-based. The following applies: Staphylococcus aureus, BX1633A9606, nutrient broth, BL-S1057/BL-S1058 adjusted for 80%/59% content of BL-S643.
Description: as §1, §3, §4, §5, §6

The subject of data set [14] is S. aureus Meth-Res A15097. Nature of the data set: Antibiotic spectrum in nutrient broth (MIC). It counts as cell-based. The following applies: Staphylococcus aureus, 10^-3 dilution, BL-S1057/BL-S1058 adjusted for 80%/59% content of BL-S643.
Description: as §1, §3, §4, §5, §6

Data set [15] relates to S. aureus Smith A9537. In words: Antibiotic spectrum in nutrient broth (MIC). The format is cell-based. The following applies: Staphylococcus aureus, 10^-4 dilution, BL-S1057/BL-S1058 adjusted for 80%/59% content of BL-S643.
Description: as §1, §3, §4, §5, §6

Data set [16] concerns Sal. enteritidis A9531. In words: Antibiotic spectrum in nutrient broth (MIC). It counts as cell-based. The following applies: Salmonella enterica, 10^-4 dilution, BL-S1057/BL-S1058 adjusted for 80%/59% content of BL-S643.
Description: as §1, §3, §4, §5, §6

In data set [17] the test system is Ser. marcescens A20019. In words: Antibiotic spectrum in nutrient broth (MIC). It counts as cell-based. The following applies: Serratia marcescens, 10^-4 dilution, BL-S1057/BL-S1058 adjusted for 80%/59% content of BL-S643.
Description: as §1, §3, §4, §5, §6

Data set [18] can be described thus: Bio-assay (using cefatrizine as the standard). It counts as cell-based. The source says:
a. Bio-assay (using cefatrizine as the standard) = 759 mcg./mg.
a. Bio-assay (using cefatrizine as the standard) = 685 mcg./mg.

Data set [19] is described as follows: Paper strip chromatography (hydrolysis to BL-S643). The following applies: 0 and 1 hour at 37° C.; 0.2 mg./ml. The format is physicochemical.
Data set [20] in a line: Liquid chromatography, % hydrolyzed in buffer. It counts as physicochemical. The following applies: 1 mg./ml. Here is the method:
f. Liquid chromatography = 100% hydrolyzed in pH 6.1 buffer within 1 hour at room temperature (concentration = 1 mg./ml.)
d. Liquid chromatography (1 mg./ml. in pH 6 buffer)

The nature of data set [21]: Paper chromatograms of rat urine after IM administration (antibiotically active metabolites). The following applies: urine 0-2 and 2-4 hours; for Antibiotically active metabolites in rat urine (spots on paper chromatogram): descending chromatography system No. 9. The format is in vivo. The procedure:
Paper chromatograms were run on rat urine collected between 0 and 2 and between 2 and 4 hours following IM administration of BL-S1057, 1058 and 643, for the detection of antibiotically active metabolites using descending chromatography with system No. 9 (butyl acetaten-butanol:glacial acetic acid:H2 O = 80:15:40:24).

Data set [22] is described as follows: Solubility in water. The format is physicochemical. The procedure:
d. Solubility = >400 mg./ml. in water

The mark [23] stands for this setting: SMITHA9537, nutrient broth +50% serum.
[24] abbreviates: SMITHA9537, nutrient broth, no serum.

Converted amounts (≈) assume the structure as drawn. “Also recorded” adds a separate entry of the source.

As usually defined, the MIC is the lowest concentration found to suppress growth. For `Cc1nnc(SCC2=C(C(=O)O)N3C(=O)C(N4C(=O)[C@@H](c5ccc(O)cc5)NC4c4ccc(S(=O)(=O)O)o4)C3SC2)s1` (some centres unmarked) [BL-S1058], the MIC in [1] was 0.016 µg/mL; in [2] it was 0.008 µg/mL; in [3], 2 µg/mL (≈ 3.07 µM); in [4], 1 µg/mL (≈ 1.53 µM); in [5], more than 125 µg/mL; in [6] it was 0.5 µg/mL (≈ 0.767 µM). The MIC was 16 µg/mL (≈ 24.6 µM) in [7]; 2 µg/mL (≈ 3.07 µM) in [8]; 0.5 µg/mL (≈ 0.767 µM) in data set [9]; 0.5 µg/mL (≈ 0.767 µM) in data set [10]; 16 µg/mL (≈ 24.6 µM) in data set [11]; more than 125 µg/mL in data set [12]. Also, the MIC in data set [13] (10^-2 dilution) is 4 µg/mL (≈ 6.14 µM); in [13] (10^-3 dilution), 0.5 µg/mL (≈ 0.767 µM); in data set [14] it was 2 µg/mL (≈ 3.07 µM); in data set [15] (setting [23]) it was 8 µg/mL (≈ 12.3 µM); in data set [15] (setting [24]) it was 0.25 µg/mL (≈ 0.384 µM); in data set [16], 0.13 µg/mL (≈ 0.199 µM). The compound also gave an MIC in [17] of 125 µg/mL (≈ 192 µM). The same compound yielded a Bio-assay in data set [18] of 685 µg/mg. Further, in [19], the “Paper strip chromatography zones” value is given as “Primarily 1 zone at Rf of BL-S643; also recorded: evidence of a second zone”. For the same compound, the “% Hydrolyzed” value in data set [20] (0 hours, pH 6 buffer) worked out at 25.4%. For the same compound, the degraded at 1 h in data set [20] (1 hour, pH 6 buffer) amounted to 46.5%. The compound further returned a degraded at 2 h in data set [20] (2 hours, pH 6 buffer) of 59%. In addition, the “Hydrolysis to parent compound (BL-S643)” value in [21] was “complete hydrolysis”. Also, in [21], the “Antibiotically active metabolites in rat urine (spots on paper chromatogram)” value (“Antibiotically active metabolites” for short) is listed as “A single, identical spot”.

The term solubility denotes the dissolved amount per volume that the medium holds. Consider `Cc1nnc(SCC2=C(C(=O)O)N3C(=O)C(N4C(=O)[C@@H](c5ccc(O)cc5)NC4c4ccco4)C3SC2)s1` (some centres unmarked) [BL-S1057], for which the minimal inhibitory concentration (MIC) in [1] was 0.016 µg/mL; in data set [2], 0.008 µg/mL; in [3] it was 4 µg/mL (≈ 7 µM); in [4], 1 µg/mL (≈ 1.75 µM); in [5] it was more than 125 µg/mL; in [6], 0.5 µg/mL (≈ 0.875 µM). Moreover, the MIC in data set [7] was 16 µg/mL (≈ 28 µM); in [8], 4 µg/mL (≈ 7 µM); in data set [9], 0.5 µg/mL (≈ 0.875 µM); in [10], 0.5 µg/mL (≈ 0.875 µM); in data set [11] it was 16 µg/mL (≈ 28 µM); in [12] it was more than 125 µg/mL. The MIC was 4 µg/mL (≈ 7 µM) in data set [13] (10^-2 dilution); 1 µg/mL (≈ 1.75 µM) in data set [13] (10^-3 dilution); 2 µg/mL (≈ 3.5 µM) in [14]; 8 µg/mL (≈ 14 µM) in [15] (setting [23]); 0.5 µg/mL (≈ 0.875 µM) in [15] (setting [24]); 0.25 µg/mL (≈ 0.437 µM) in data set [16]. The compound also showed an MIC in data set [17] of 125 µg/mL (≈ 219 µM). Moreover, in data set [18], the Bio-assay was 759 µg/mg. Besides, in data set [22], the solubility is more than 400 mg/mL. In data set [19], the “Paper strip chromatography zones” value is given as “Primarily 1 zone at Rf of BL-S643”. In addition, the degraded at 1 h in data set [20] (within 1 hour, pH 6.1 buffer, room temperature) turned out to be 100%. In addition, in [21], the “Hydrolysis to parent compound (BL-S643)” value was “complete hydrolysis”. For the same compound, in data set [21], the “Antibiotically active metabolites” value is “A single, identical spot”.

As for `Cc1nnc(SCC2=C(C(=O)O)N3C(=O)C(NC(=O)[C@H](N)c4ccc(O)cc4)C3SC2)s1` (some centres unmarked) [BL-S643, reference compound], the MIC in [1] was 0.03 µg/mL; in data set [2], 0.016 µg/mL; in data set [3], 4 µg/mL (≈ 8.1 µM); in [4], 1 µg/mL (≈ 2.03 µM); in data set [5] it was more than 125 µg/mL; in [6], 4 µg/mL (≈ 8.1 µM). Besides, the MIC in data set [7] was 32 µg/mL (≈ 64.8 µM); in data set [8], 4 µg/mL (≈ 8.1 µM); in data set [9], 0.5 µg/mL (≈ 1.01 µM); in [10], 0.5 µg/mL (≈ 1.01 µM); in data set [11], 16 µg/mL (≈ 32.4 µM); in data set [12] it was more than 125 µg/mL. Also, the MIC came out at 4 µg/mL (≈ 8.1 µM) in data set [13] (10^-2 dilution); 1 µg/mL (≈ 2.03 µM) in [13] (10^-3 dilution); 4 µg/mL (≈ 8.1 µM) in data set [14]; 8 µg/mL (≈ 16.2 µM) in data set [15] (setting [23]); 0.5 µg/mL (≈ 1.01 µM) in [15] (setting [24]); 0.25 µg/mL (≈ 0.506 µM) in data set [16]. For the same compound, in [17], the minimal inhibitory concentration (MIC) was 125 µg/mL (≈ 253 µM). The “Antibiotically active metabolites” value in [21] was “A single, identical spot”.

These data come from patent publication US4064345A, “Cephalosporins derivatives 7-cyclized α-amino-3-heterothio” (Bristol-Myers Company, priority 1976, dated 1977).
